Values after ≈ are worked out from the molar mass of the structure shown.
Tests used:
Details in all cases: ATCC 35743, 10 min
[1] = system: Mycobacterium tuberculosis variant bovis BCG; assay: Antitubercular activity against Mycobacterium bovis BCG ATCC 35743 after 10 mins by NR assay; type: functional, organism-based
[2] = system: Mycobacterium tuberculosis variant bovis BCG; assay: Antitubercular activity against Mycobacterium bovis BCG ATCC 35743 at 10 ug/ml after 10 mins by NR assay; type: functional
[3] = system: Mycobacterium tuberculosis variant bovis BCG; assay: Antitubercular activity against Mycobacterium bovis BCG ATCC 35743 at 3 ug/ml after 10 mins by NR assay; type: functional
[4] = system: Mycobacterium tuberculosis variant bovis BCG; assay: Antitubercular activity against Mycobacterium bovis BCG ATCC 35743 at 30 ug/ml after 10 mins by NR assay; type: functional

| SMILES | IC50 [1] [µg/mL] | MIC [1] [µg/mL] | inhibition at 10 µg/mL [2] [%] | inhibition at 3 µg/mL [3] [%] | inhibition at 30 µg/mL [4] [%] |
| --- | --- | --- | --- | --- | --- |
| O=C1CSc2ccccc2N1Cc1cn(Cc2ccccc2Cl)nn1 | > 30 | > 30 | 80.2 | 32 | 58 |
| O=C1CSc2ccccc2N1Cc1cn(-c2ccc([N+](=O)[O-])cc2)nn1 | > 30 | > 30 | 30.7 | 15.9 | 33.1 |
| O=C1CSc2ccccc2N1Cc1cn(Cc2cccc(Cl)c2)nn1 | 18.6 (≈ 50.1 µM) | 28.4 (≈ 76.7 µM) | 16.4 | 3.3 | 95.5 |
| O=C1CSc2ccccc2N1Cc1cn(-c2cccc([N+](=O)[O-])c2)nn1 | > 30 | > 30 | 31.3 | 39.3 | 26.6 |
| O=C1CSc2ccccc2N1Cc1cn(Cc2ccc(Cl)cc2)nn1 | 8.55 (≈ 23.1 µM) | > 30 | 55.2 | 66.1 | 58.1 |
| O=C1CSc2ccccc2N1Cc1cn(Cc2ccc(F)cc2)nn1 | 8.25 (≈ 23.3 µM) | 27.5 (≈ 77.6 µM) | 52.9 | 40.6 | 95.3 |
| O=C1CSc2ccccc2N1Cc1cn(Cc2ccc([N+](=O)[O-])cc2)nn1 | 7.89 (≈ 20.7 µM) | 29.4 (≈ 77 µM) | 59.2 | 28.3 | 91.1 |
| O=C1CSc2ccccc2N1Cc1cn(Cc2ccc(Br)cc2)nn1 | > 30 | > 30 | 35.3 | 58.8 | 43.9 |
| O=C1CSc2ccccc2N1Cc1cn(Cc2ccccc2)nn1 | 19.8 (≈ 58.7 µM) | > 30 | 26.8 | 1.1 | 74.3 |
| O=C1CSc2ccccc2N1Cc1cn(Cc2cccc([N+](=O)[O-])c2)nn1 | 6.89 (≈ 18.1 µM) | > 30 | 62.2 | 36.1 | 88.5 |
| CO[C@H]1/C=C/O[C@@]2(C)Oc3c(C)c(O)c4c(O)c(c(/C=N/N5CCN(C)CC5)c(O)c4c3C2=O)NC(=O)/C(C)=C\C=C\[C@H](C)[C@H](O)[C@@H](C)[C@@H](O)[C@@H](C)[C@H](OC(C)=O)[C@@H]1C [RIFAMPIN] | 0.0016 (≈ 0.00194 µM) | 0.041 (≈ 0.0498 µM) | – | – | – |
| NNC(=O)c1ccncc1 [ISONIAZID] | 0.0023 (≈ 0.0168 µM) | 0.045 (≈ 0.328 µM) | – | – | – |
